We go through three compounds from US11168179B2, “Macromolecular transition metal complexes for treatment of cancer and process for their preparation” (FACULDADE DE CIÉNCIAS DA UNIVERSIDADE DE LISBOA, priority 2014, dated 2021).

Like-named read-outs stand apart in the source and are kept apart here.

The test system of experiment [1] is MCF-7 breast adenocarcinoma cells. The experiment in a line: MTT cell viability assay, MCF-7. Format: cell-based, human. As to the method:
(§1) The cell culture was made in flasks containing the medium appropriate to cell proliferation and allowing cell adhesion.
For this, the cells were seeded in 200 μl of complete cell medium in 96-well plates.
Cells were left to adhere for 24 h, followed by the addition of various dilutions in medium (200 μl) of the test compound. The test compound was first solubilized in DMSO and then in the cell medium and added to the cells at concentrations 1-100 μM. The final DMSO concentrations in the medium were lower than 0.5%. After 24 h and 72 h incubation, 37° C./5% CO2, the medium was substituted by 200 μl of the MTT solution (0.5 mg/ml in phosphate buffer—PBS). After 3-4 h incubation, the MTT solution was removed and the formazan crystals formed by the viable cells were dissolved in DMSO (200 μl). […] The cytotoxicity of the test compound was quantified calculating the drug concentration that inhibits the growth of 50% of cells (IC50) (GraphPad Prism software). The assessment was carried out with at least two independent experiments, each comprising six replicates per concentration.
Upon reaching the required confluence, the cells were harvested through addition of a 0.05% trypsin-EDTA solution (Gibco®). […] For this, the cells were seeded in 200 μl of complete cell medium in 96-well plates. […] Cells were left to adhere for 24 h, followed by the addition of various dilutions in medium (200 μl) of the test compound. The test compound was first solubilized in DMSO and then in the cell medium and added to the cells at concentrations 1-100 μM. The final DMSO concentrations in the medium were lower than 0.5%. […] The cytotoxicity of the test compound was quantified calculating the drug concentration that inhibits the growth of 50% of cells (IC50) (GraphPad Prism software). The assessment was carried out with at least two independent experiments, each comprising six replicates per concentration.
(Tetrazolium dyes change colour on reduction, which living cells bring about.)

The subject of another experiment is glioma U87 cells. The conditions noted are these: literature value (J. Biol. Chem. 1997, 272:14041-14044); read-out: value found in the literature for the glioma line; cited from earlier work.
The subject of experiment [2] is A2780 ovarian carcinoma cells. The experiment in a line: MTT cell viability assay, A2780. Format: cell-based, human. As to conditions: 72 h incubation, read-out: IC50 after a 72 h incubation, A2780. Here is the method: (§2) The cultures of human breast (MDA-MB-231; ATCC) and ovarian (A2780, ATCC) carcinoma cell lines, were carried out in DMEM (Gibco) medium containing GlutaMax I (MDA-MB-231) or RPMI (A2780) and were completed with 10% FBS and 1% penicillin-streptomycin and kept at 37° C. in a humidified atmosphere containing 5% de CO2.
as §1
(§3) Upon reaching the required confluence, the cells were harvested through addition of a 0.05% trypsin-EDTA solution (Gibco®). […] For this, the cells were seeded in 200 μl of complete cell medium in 96-well plates. Cell density was 2×10^4 viable cells (MDA-MB-231 and A2780) per well.
(§4) Cells were left to adhere for 24 h, followed by the addition of various dilutions in medium (200 μl) of the test compound. The test compound was first solubilized in DMSO and then in the cell medium and added to the cells at concentrations 1-100 μM. The final DMSO concentrations in the medium were lower than 0.5%. After 24 h and 72 h incubation, 37° C./5% CO2, the medium was substituted by 200 μl of the MTT solution (0.5 mg/ml in phosphate buffer—PBS). After 3-4 h incubation, the MTT solution was removed and the formazan crystals formed by the viable cells were dissolved in DMSO (200 μl). Cell viability was assessed measuring the absorbance at 570 nm, using a plate spectrophotometer.
(§5) The cytotoxicity of the test compound was quantified calculating the drug concentration that inhibits the growth of 50% of cells (IC50) (GraphPad Prism software). The assessment was carried out with at least two independent experiments, each comprising six replicates per concentration. Dose-response curves of cell viability, after a 72 h incubation, are represented in the graphs of the FIGS. 4a and 4b.
Upon reaching the required confluence, the cells were harvested through addition of a 0.05% trypsin-EDTA solution (Gibco®). […] For this, the cells were seeded in 200 μl of complete cell medium in 96-well plates. […]

Experiment [3] has as its system MDA-MB-231 human breast carcinoma cells. The experiment is described as follows: MTT cell viability assay, MDA-MB-231. Format: cell-based. As to conditions: 72 h incubation, read-out: IC50 after a 72 h incubation, MDA-MB-231. As to the method: as §2, §1, §3, §4, §5
Experiment [4] concerns MCF-7 cancer cell line. The conditions noted are these: immunofluorescence, versus control cells. An excerpt: In this immunofluorescence assay, Alexa Fluor 488® phalloidin, which is a high-affinity filamentous actin (F-actin) probe conjugated to the green-fluorescent Alexa Fluor® 488 dye was used. In order to obtain nuclear staining DAPI (blue) was used (FIG. 9).
The test system of experiment [5] is human cells of MCF-7 breast cancer. The conditions noted are these: 24 h incubation, versus untreated control cells (100%). An excerpt: The intrinsic pathway is triggered by intracellular or extracellular stress. The signals that are transduced in response to these stimuli converge mainly to the mitochondria. This organelle integrates the cell death stimuli, inducing mitochondrial permeabilization and consequent release of pro-apoptotic molecules present therein.

Experiment [6] has as its system MCF-7 cancer cell line. As to conditions: 48 h of incubation, 10 μM. An excerpt: This assay is widely used to determine if cells are viable, apoptotic, or necrotic through differences in plasma membrane integrity and permeability. All in all, Annexin V/PI is a commonly used approach for studying cell death (Rieger et al. 2011).
Annexin V a marker of early apoptosis. […] Cisplatin was used as a positive control since it is known to induce apoptosis.

[7] abbreviates: 72 h incubation, read-out: IC50 after a 72 h incubation, MCF-7.
The mark [8] stands for this setting: 24 h incubation, read-out: IC50 after a 24 h incubation, MCF-7.

For `N.N.[Cl][Pt][Cl]` [Cisplatin, reference compound], the IC50 was 28 ± 6 µM in experiment [1] (setting [7]), 130 ± 53 µM in the experiment with glioma U87 cells, 2 ± 0.1 µM in experiment [2] and 39 ± 5 µM in experiment [3].

Regarding “(2,2′-bipyridine-4,4′-diylbis{methylene}bis(2-{2-(2-hydroxypropanoyloxy)poly(lactic acid)-yl}propanoate)-k^2N,N′)(triphenylphosphane)(η^5-cyclopentadienyl)ruthenium(II) triflate [Compound 5]”, the “effect on cytoskeleton (F-actin filaments)” value in the experiment with MCF-7 cancer cell line [4] is on record as “cytoskeleton loses its organization”. Moreover, the IC50 in experiment [1] (setting [8]) worked out at 4.25 ± 1.15 µM; in experiment [1] (setting [7]), 4.09 ± 1.97 µM; in experiment [2], 3.4 ± 1.3 µM; in experiment [3], 2.7 ± 0.55 µM. For the same compound, the “expression of catalase and SMAC diablo proteins” value in experiment [5] is recorded as “decrease”. Further, in the experiment with MCF-7 cancer cell line [6], the “percentage of Annexin V stained cells in comparison to the control” value is reported as “increase”. In the experiment with MCF-7 cancer cell line [6], the “type of cell death induced” value was “apoptosis”.

Consider “[(1,1′-{1,1′-(1,1′-{2,2′-Bipyridine-4,4′-diylbis(methylene)}bis(oxy)bis(1-oxopropane-2,1-diyl))bis(poly(lactic acid)-yl))}bis(oxy)bis(1-oxopropane-2,1-diyl)di(2S,3S,4S,5R,6R)-3,4,5,6-tetrahydroxyoxane-2-carboxylate)-k^2N,N′](triphenylphosphane)(η^5-cyclopentadienyl)-ruthenium(II) triflate [Compound 6]”, for which, in the experiment with MCF-7 cancer cell line [4], the “effect on cytoskeleton (F-actin filaments)” value is “cytoskeleton loses its organization”. For the same compound, the IC50 in experiment [1] (setting [8]) stood at 5 ± 1.65 µM; in experiment [1] (setting [7]), 4.62 ± 1.15 µM; in experiment [2], 2.2 ± 0.85 µM; in experiment [3], 5.96 ± 3.25 µM. Also, in experiment [5], the “expression of catalase and SMAC diablo proteins” value is recorded as “decrease”. Also, the “percentage of Annexin V stained cells in comparison to the control” value in the experiment with MCF-7 cancer cell line [6] is listed as “increase”. Also, the “type of cell death induced” value in the experiment on MCF-7 cancer cell line [6] was “apoptosis”.
